The text below walks through data of paper PMC7933930, “Development of a small molecule that corrects misfolding and increases secretion of Z α1‐antitrypsin” (EMBO Molecular Medicine, 2021).

One assay addresses PXR (rat) (Rattus norvegicus, UniProt Q9R1A7). The assay can be described thus: Off‐target panel: PXR (rat). It is filed as cell-based. How it is done: GSK716 selectivity and PK properties were profiled in order to investigate the suitability of GSK716 for progression into in vivo studies and the potential for taking it forward as a clinical candidate for testing in humans. Since GSK716 results in loss of inhibitory activity of α1‐antitrypsin, the effect of the compound was assessed on other closely related serpins. […] Furthermore, there were no off‐target effects in a panel of assays considered predictive of known safety liabilities that precluded further development of GSK716 (Table EV1).

The subject of a further assay is α1‐antitrypsin. In words: Equilibrium unfolding in guanidinium hydrochloride with bis‐ANS. It is filed as biochemical, human. As to conditions: 50 µM GSK716, guanidinium hydrochloride; ~ 1.3 M in its absence. An excerpt:
(§1) Polymerisation of α1‐antitrypsin involves transition through a transient intermediate state known as M*, that is readily populated by the Z variant (Dafforn et al, 1999; Knaupp et al, 2010). The M* conformational ensemble appears to be a distinct species between the native state conformation and that of the final polymer. One of the hallmarks of M* is its recognition by environment‐sensitive fluorescent reporter dyes. Thermal shift assays that make use of the dye SYPRO Orange report the stability of the protein native state against heat‐induced unfolding. […] Native state stability can also be probed by equilibrium unfolding using chemical denaturants, where a peak in bis‐ANS fluorescence corresponds with a maximally populated unfolding intermediate (James & Bottomley, 1998). […] The association of GSK716 induced a marked quenching and blue‐shift of the α1‐antitrypsin intrinsic tryptophan fluorescence spectrum (Fig 4D, inset). The rate of change in fluorescence during association of 10µM GSK716 was proportional to the propensity of α1‐antitrypsin mutants to form polymers in vivo: inert (M), mild (S), moderate (Baghdad) and severe (Z) α1‐antitrypsin (Fig 4D, top and bottom). […]

The subject of assay [1] is Z α1‐antitrypsin secretion in CHO‐TET‐ON‐Z‐A1AT cells. The assay can be described thus: Secretion of Z α1‐antitrypsin from CHO‐TET‐ON‐Z‐A1AT cells (TR‐FRET). The conditions noted are these: n = 74, read-out: mean pEC50, secretion of Z α1‐antitrypsin (converted). It is filed as cell-based.
The subject of a further assay is M and Z α1‐antitrypsin. The assay can be described thus: Heat‐induced oligomerisation, constant temperature, non‐denaturing PAGE. The conditions noted are these: constant‐temperature experiment, 4 h, 48 to 65°C. It is filed as biochemical, human.
From the text: as §1

pEC50: −log10 of the molar value.

Chain of PXR (rat) (Q9R1A7 whole entry): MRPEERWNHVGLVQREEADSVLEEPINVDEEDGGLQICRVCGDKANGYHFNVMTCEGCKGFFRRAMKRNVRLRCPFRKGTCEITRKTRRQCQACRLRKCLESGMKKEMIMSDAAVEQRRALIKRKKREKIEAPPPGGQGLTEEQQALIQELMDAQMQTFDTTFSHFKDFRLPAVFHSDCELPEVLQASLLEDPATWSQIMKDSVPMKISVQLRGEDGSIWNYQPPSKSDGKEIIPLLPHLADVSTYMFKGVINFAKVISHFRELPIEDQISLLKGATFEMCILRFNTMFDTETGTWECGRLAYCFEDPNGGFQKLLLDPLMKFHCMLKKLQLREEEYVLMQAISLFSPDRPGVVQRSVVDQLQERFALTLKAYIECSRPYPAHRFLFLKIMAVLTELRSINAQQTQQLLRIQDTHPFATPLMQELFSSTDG

Consider `CCC[C@@H](NC(=O)c1cccc2c1CC(=O)N2)[C@@H](O)c1cccc(F)c1C` [GSK716], for which the pEC50 (as a rule, the negative decadic logarithm of the EC50, by convention in mol/L) on PXR (rat) was 4.90. Moreover, in the assay on α1‐antitrypsin, the “denaturant concentration at peak bis‐ANS fluorescence (maximally populated unfolding intermediate)” value is ~ 1.9 M. In addition, in assay [1], the EC50 was 0.631 µM. Moreover, the “temperature of oligomer generation” value with M and Z α1‐antitrypsin was “oligomers were generated at higher temperatures in the presence of the compound than in its absence”.
